Measured values reported in ChEMBL document CHEMBL1145500, “In vitro bactericidal activity of the antiprotozoal drug miltefosine against Streptococcus pneumoniae and other pathogenic streptococci” (2007).
In brackets after ≈: the same amount, converted by molar mass. Activity calls are given as the source filed them. The calls are words filed in the database; no cut-off is given here.

How the values were obtained:
Streptococcus sp. [1] = experiment: Antimicrobial activity against Streptococcus sp. 782/96; assay type: functional
Streptococcus sp. [2] = experiment: Antimicrobial activity against Streptococcus sp.11923/96; assay type: functional
Streptococcus pneumoniae [3] = experiment: Antimicrobial activity against Streptococcus pneumoniae spain 23F-1; assay type: functional
Streptococcus pneumoniae [4] = experiment: Antimicrobial activity against Streptococcus pneumoniae R6; assay type: functional
Streptococcus mitis = experiment: Antimicrobial activity against Streptococcus mitis NCTC 12161; assay type: functional
Enterococcus faecalis = experiment: Antimicrobial activity against Enterococcus faecalis; assay type: functional
Streptococcus pyogenes = experiment: Antimicrobial activity against Streptococcus pyogens CECT 985
Streptococcus pneumoniae [5] = experiment: Induction of autolysin LytA Streptococcus pneumoniae M32 assessed as log reduction in bacterial count at 25 uM after 3 hrs; assay type: functional
Streptococcus pneumoniae [6] = experiment: Antimicrobial activity against Streptococcus pneumoniae ATCC 6303; assay type: functional
Streptococcus agalactiae = experiment: Antimicrobial activity against Streptococcus agalactiae CECT 183; assay type: functional
Streptococcus sp. [7] = experiment: Bactericidal effect on Streptococcus sp.11923/96 at 10 uM; assay type: functional, organism-based
Streptococcus sp. [8] = experiment: Bactericidal effect on Streptococcus sp. 782/96 at 10 uM; assay type: functional, organism-based
Streptococcus pneumoniae [9] = experiment: Lytic effect on Streptococcus pneumoniae M32 in presence of 10 ug/ml LytA amidase; assay type: functional, organism-based
[10] = tested on: Streptococcus pseudopneumoniae; experiment: Bactericidal effect on Streptococcus pseudopneumoniae at 10 uM; assay type: functional
Streptococcus pneumoniae [11] = experiment: Antimicrobial activity against Streptococcus pneumoniae M32; assay type: functional
Streptococcus pneumoniae [12] = experiment: Induction of autolysin LytA in Streptococcus pneumoniae M32 assessed as log reduction in bacterial count at 25 uM after 15 mins; assay type: functional
Streptococcus pneumoniae [13] = experiment: Antimicrobial activity against Streptococcus pneumoniae 8249; assay type: functional
Streptococcus oralis = experiment: Antimicrobial activity against Streptococcus oralis NCTC 11427
Streptococcus mutans = experiment: Antimicrobial activity against Streptococcus mutans CECT 479; assay type: functional

Work on `CN(C)[C@@H]1C(O)=C(C(N)=O)C(=O)[C@@]2(O)C(O)=C3C(=O)c4c(O)cccc4[C@@](C)(O)[C@H]3C[C@@H]12` [TETRACYCLINE] yielded an MIC (Streptococcus sp. [1]) of 128 µg/mL (≈ 288 µM), an MIC (Streptococcus sp. [2]) of 0.5 µg/mL (≈ 1.13 µM) and an MIC (Streptococcus pneumoniae [3]) of 8 µg/mL.
`CC[C@H]1OC(=O)[C@H](C)[C@@H](O[C@H]2C[C@@](C)(OC)[C@@H](O)[C@H](C)O2)[C@H](C)[C@@H](O[C@@H]2O[C@H](C)C[C@H](N(C)C)[C@H]2O)[C@](C)(O)C[C@@H](C)C(=O)[C@H](C)[C@@H](O)[C@]1(C)O` [ERYTHROMYCIN] was tested, and the MIC (Streptococcus sp. [1]) was > 128 µg/mL and the MIC (Streptococcus sp. [2]) was 4 µg/mL (≈ 5.45 µM).
With `O=C(N[C@H](CO)[C@H](O)c1ccc([N+](=O)[O-])cc1)C(Cl)Cl` [CHLORAMPHENICOL] the MIC (Streptococcus pneumoniae [3]) was > 8 µg/mL.
For `CCCCCCCCCCCCCCCCOP(=O)([O-])OCC[N+](C)(C)C` [MILTEFOSINE], the MIC (Streptococcus pneumoniae [4]) was 5 µM (≈ 2.04 µg/mL), the MIC (Streptococcus mitis) was 10 µM (≈ 4.08 µg/mL) and the MIC (Enterococcus faecalis) was 20 µM (≈ 8.15 µg/mL). The MIC (Streptococcus pyogenes) was 10 µM (≈ 4.08 µg/mL), the Activity (Streptococcus pneumoniae [5]) was 4 and the MIC (Streptococcus pneumoniae [6]) was 6.25 µM (≈ 2.55 µg/mL). For the same compound, the MIC (Streptococcus agalactiae) was 20 µM (≈ 8.15 µg/mL), the Activity (Streptococcus sp. [7]) was “Active” and the Activity (Streptococcus sp. [8]) was “Active”. The Activity (Streptococcus pneumoniae [9]) was “Active”, the Activity [10] was “Active” and the MIC (Streptococcus pneumoniae [11]) was 5 µM (≈ 2.04 µg/mL). It also gave an Activity (Streptococcus pneumoniae [12]) of 2, an MIC (Streptococcus pneumoniae [13]) of 6.25 µM (≈ 2.55 µg/mL) and an MIC (Streptococcus oralis) of 10 µM (≈ 4.08 µg/mL). For the same compound, the MIC (Streptococcus pneumoniae [3]) was 6.25 µM and the MIC (Streptococcus mutans) was 20 µM (≈ 8.15 µg/mL).
